In brackets after ≈: the same amount, converted by molar mass. Read-outs that look alike come from different tables or passages of the source.
Legend:
[1] = test system: CHO-K1 (chinese hamster ovary cells); assay: Cytotoxicity assay (MTT, 5 d) on CHO-K1; type: cell-based; conditions: Cricetulus griseus, CHO-K1, 120 h
Method: (§1) Cytotoxicity assay: A549 (human lung carcinoma cell line; ACC 107) and CHO-K1 (chinese hamster ovary cells; ACC 110) were obtained from the German Collection of Microorganisms and Cell Cultures (DSMZ) and cultured under the conditions recommended by the depositor. Cells were propagated in Dulbeccos’s Modified Eagle’s Medium (DMEM) and Ham’s F12 medium, respectively, supplemented with 10% fetal bovine serum (FBS), and seeded at 6×10^3 cells per well of 96-well plates in 120 μL of complete medium. After 2 h of equilibration (37 °C, 5% CO2), the cells were treated with a serial dilution of cytochalasins in 60 µL growth medium. Cytochalasins, doxorubicin as reference, as well as the solvent control were tested as duplicates in two independent experiments. After 5 d of incubation (37 °C, 5% CO2), a total of 20 μL of 5 mg/ml MTT (thiazolyl blue tetrazolium bromide) in phosphate -buffered saline (PBS) were added to each well […]
(§2) and the cells were further incubated for 2 h at 37 °C before the supernatant was discarded.
(§3) Subsequently, the cells were washed with 100 μL of PBS and treated with 100 μl of 2-propanol/10 N HCl (250:1) to dissolve formazan granules. Cell viability was measured as percentage relative to the respective solvent control by measuring the absorbance at 570 nm using a microplate reader (Tecan Infinite M200Pro). GraphPad Prism (version 10.0.3, GraphPad, Boston, MA, USA) was used for sigmoidal curve fitting to determine the IC50 values.

[2] = test system: A549 (human lung carcinoma cell line); assay: Cytotoxicity assay (MTT, 5 d) on A549; type: cell-based; conditions: for IC50: Homo sapiens, A549, 120 h, MTT, 5 d incubation; for Cytotoxic activity against A549 (in words): positive control doxorubicin
Method: as §1, §2, §3

in vitro [3] = type: in vitro ADME, mouse; conditions: for microsomal CLint: C57BL/6, mouse, microsomes; for half-life: mouse, 1 μM compound, 0.5 mg/mL pooled C57BL/6 microsomes, read-out: Mouse liver microsome t1/2
Method: Assays in liver microsomes: For metabolic stability, the compound (1 μM) was incubated with 0.5 mg/mL pooled mouse (C57BL/6) microsomes (Xenotech, Kansas City, USA), 2 mM NADPH, 10 mM MgCl2 at 37 °C for 120 min on a microplate shaker. The metabolic stability of testosterone, verapamil and ketoconazole were determined in parallel to confirm the enzymatic activity of mouse/rat liver microsomes. The incubation was stopped after defined time points by precipitation of aliquots of the incubation mixture with 2 volumes of cold internal standard solution (15 nM diphenhydramine in 10% methanol/acetonitrile). Samples were stored on ice until the end of the incubation and precipitated protein was removed by centrifugation (15 min, 4 °C, and 4,000 g). Concentration of the remaining test compound at the different time points was analyzed by HPLC-MS/MS (Vanquish Flex coupled to a TSQ Altis Plus, Thermo Fisher, Dreieich, Germany) and used to determine half-life (t1/2). […]

in vitro [4] = type: in vitro ADME, mouse; conditions: 1 μM compound, pooled CD-1 mouse plasma, read-out: Mouse plasma t1/2
Method: Plasma stability assays: To determine stability in plasma, the compound (1 μM) was incubated with pooled CD-1 mouse plasma (Neo Biotech, Nanterre, France). Samples were taken by mixing aliquots with 4 volumes of cold internal standard solution (12.5 nM diphenhydramine in 10% methanol/acetonitrile). The plasma stability of procain, propantheline and diltiazem were determined in parallel to confirm the enzymatic activity. Samples were stored on ice until the end of the incubation and precipitated protein was removed by centrifugation (15 min, 4 °C, 4,000 g, two centrifugation steps). Concentration of the remaining test compound at the different time points was analyzed by HPLC-MS/MS (Vanquish Flex coupled to a TSQ Altis Plus, Thermo Fisher, Dreieich, Germany). […]

E. coli ΔacrB (JW0451-2) = assay: Antibacterial activity against E. coli ΔacrB; type: cell-based; conditions: Escherichia coli, read-out: E. coli ΔacrB (JW0451-2) MIC
[5] = test system: Staphylococcus aureus Newman; assay: Antibacterial activity against S. aureus Newman; type: cell-based; conditions: Table S22
[6] = Table 1, intrinsic clearance from microsomal metabolism data
[7] = Table S22, intrinsic clearance calculated from microsomal metabolism data

Structure (SMILES)	IC50 ([1]; Table 1, 5 d incubation)	IC50 ([2]; Table 1)	Cytotoxic activity against A549 (in words) [2]	microsomal CLint (in vitro [3]; [6])	half-life (in vitro [3]; Table S22)	half-life at 1 μM (in vitro [4]; Table 1)	MIC (E. coli ΔacrB (JW0451-2))	MIC [5]	half-life (in vitro [3]; Table 1, 120 min)	IC50 ([1]; Table S22, 5 d incubation)	IC50 ([2]; Table S22)	microsomal CLint (in vitro [3]; [7])	half-life at 1 μM (in vitro [4]; Table S22)
CC(=O)OC1C2OC2C(C)(O)C(=O)C(C)CC=CC2C(O)C(C)=C(C)C3C(Cc4cccc(Cl)c4)NC(=O)C213 (centres unmarked) [Compound 11, m-chloro-19,20-epoxycytochalasin C]	0.67 ± 0.53 µg/mL (≈ 1.2 µM)	0.04 µg/mL (≈ 0.0717 µM)	lower nanomolar activities	52.7 ± 2.5 µL/min/mg	26.4 ± 1.2 min	> 240 min	> 64 µg/mL	> 64 µg/mL					
CC(=O)OC1C(C)=C(C)C2C(Cc3ccccc3)NC(=O)C23C1C=CCC(C)C(=O)C(C)(O)C1OC1C3OC(C)=O (centres unmarked) [Compound 23, 7-acetyl-19,20-epoxycytochalasin C]	15.7 ± 3.05 µg/mL (≈ 27.7 µM)	> 37 µg/mL	pronounced reduced activity	231 ± 36 µL/min/mg		> 240 min	> 64 µg/mL	> 64 µg/mL	6.1 ± 1 min				
CC1=C(C)C2C(Cc3ccccc3)NC(=O)C23C(O)C2OC2C(C)(O)C(=O)C(C)CC=CC3C1O (centres unmarked) [Compound 4, deacetyl-19,20-epoxycytochalasin C]					53.1 ± 0.2 min		> 64 µg/mL	> 64 µg/mL		4.63 ± 4.23 µg/mL (≈ 9.61 µM)	1.07 µg/mL (≈ 2.22 µM)	26.2 ± 0.1 µL/min/mg	> 240 min
CC1CC=CC2C3OC3(C)C(C)C3C(Cc4ccccc4)NC(=O)C23C(O)C2OC2C(C)C1=O (centres unmarked) [Compound 1, deacetyl-18-desoxy-19,20-epoxycytochalasin Q]					13.8 ± 1.8 min		> 64 µg/mL	> 64 µg/mL		1.21 ± 0.31 µg/mL (≈ 2.6 µM)	0.32 ± 0.1 µg/mL (≈ 0.687 µM)	102 ± 13 µL/min/mg	> 240 min
CC1CC=CC2C3OC3(C)C(C)C3C(Cc4cccc(Br)c4)NC(=O)C23C(O)C2OC2C(C)(O)C1=O (centres unmarked) [Compound 19, m-bromo-deacetyl-19,20-epoxycytochalasin Q]					23.1 ± 1.5 min		> 64 µg/mL	> 64 µg/mL		0.63 ± 0.24 µg/mL (≈ 1.12 µM)	> 37 µg/mL	60 ± 4 µL/min/mg	> 240 min
CC(=O)OC1C2OC2C(C)(O)C(=O)C(C)CC=CC2C3OC3(C)C(C)C3C(Cc4ccccc4)N(C(C)=O)C(=O)C213 (centres unmarked) [Compound 24, N-acetyl-19,20-epoxycytochalasin Q]					2.5 ± 0.3 min		> 64 µg/mL	> 64 µg/mL		3.06 ± 0.5 µg/mL (≈ 5.41 µM)	0.72 ± 0.12 µg/mL (≈ 1.27 µM)	558 ± 58 µL/min/mg	> 240 min
CC(=O)O[C@@H]1/C=C/[C@@](C)(O)C(=O)[C@@H](C)C/C=C/[C@H]2[C@H](O)C(C)=C(C)[C@H]3[C@H](Cc4ccccc4)NC(=O)[C@@]123 [Compound 2, cytochalasin C]					15.8 ± 1.2 min		> 64 µg/mL	> 64 µg/mL		1.48 ± 1.38 µg/mL (≈ 2.92 µM)	3.34 ± 0.92 µg/mL (≈ 6.58 µM)	88 ± 7 µL/min/mg	> 240 min
CC1=C(C)C2C(Cc3cccc(Br)c3)NC(=O)C23C(O)C2OC2C(C)(O)C(=O)C(C)CC=CC3C1O (centres unmarked) [Compound 17, m-bromo-deacetyl-19,20-epoxycytochalasin C]	0.49 ± 0.12 µg/mL (≈ 0.874 µM)	0.14 ± 0.02 µg/mL (≈ 0.25 µM)	lower nanomolar activities	43 ± 4 µL/min/mg		> 240 min	> 64 µg/mL	> 64 µg/mL	32 ± 3 min		0.19 ± 0.02 µg/mL (≈ 0.339 µM)		
C[C@H]1C/C=C/[C@H]2[C@@H]3O[C@]3(C)[C@@H](C)[C@H]3[C@H](Cc4ccccc4Br)NC(=O)[C@]32C(=O)C[C@@H](O)[C@@](C)(O)C1=O [Compound 21, o-bromo-19-hydroxy-21-oxocytochalasin Q]					11.2 ± 0.8 min		> 64 µg/mL	> 64 µg/mL		3.04 ± 0.18 µg/mL (≈ 5.42 µM)	0.79 ± 0.24 µg/mL (≈ 1.41 µM)	124 ± 9 µL/min/mg	> 240 min
CC(=O)OC1C2OC2C(C)(O)C(=O)C(C)CC=CC2C3OC3(C)C(C)C3C(Cc4ccccc4)NC(=O)C213 (centres unmarked) [Compound 6, 19,20-epoxycytochalasin Q]					15 ± 4 min		> 64 µg/mL	> 64 µg/mL		0.72 ± 0.3 µg/mL (≈ 1.38 µM)	0.14 ± 0.02 µg/mL (≈ 0.267 µM)	97 ± 24 µL/min/mg	> 240 min

Source: PMC12848680, “Microbial Cross-Talk: Unlocking the Cytochalasin Diversity from a Termite-Associated Xylaria” (JACS Au, 2025)
